The values below come from PMC3159909, “Alliinase from Ensifer adhaerens and Its Use for Generation of Fungicidal Activity” (AMB Express, 2011).

Read-outs that look alike come from different tables or passages of the source.

In the experiment the test system is T1, P-19486 alliinase.
T1 construct: homodimer 96 kDa, subunit 48 kDa; PLP-dependent
The experiment can be described thus: colorimetric pyruvic acid production. Format: biochemical, Ensifer adhaerens. The conditions noted are these: 20 uM PLP, 50 mM sodium phosphate pH 7.0, 30°C, read-out: Kinetic constants / Km. From the text:
colorimetric pyruvic acid production on P-19486 alliinase

With `C=CCSC[C@H](N)C(=O)O` [S-Allyl-L-cysteine], the Km was 10.6 mM.

Consider `C=CC[S+]([O-])C[C@H](N)C(=O)O` (mixture of isomers) [(±)-Alliin], for which the Km (diastereomer mixture) is 2.3 mM.

`C=CC[S@+]([O-])C[C@H](N)C(=O)O` [(+)-Alliin]: the Km is 5.7 mM.
